Reference: PubChem BioAssay (NCI)
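Where inhibition never reached the appropriate level, the endpoint shown equals the highest concentration tested. Otherwise, values were interpolated linearly from a five-concentration, 48-hour dose response in 96-well plates. At the GI50, growth is halved. The concentration for full growth arrest is given as TGI.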

Tests used:
Test in all cases: NCI-60 cell line screen, 48 h
HCT-116 colon = tested on: HCT-116 colon
HCT-15 colon = tested on: HCT-15 colon
LOX IMVI melanoma = tested on: LOX IMVI melanoma
M14 melanoma = tested on: M14 melanoma
MALME-3M melanoma = tested on: MALME-3M melanoma
RXF 393 renal = tested on: RXF 393 renal
SF-268 CNS = tested on: SF-268 CNS
SK-OV-3 ovarian = tested on: SK-OV-3 ovarian
SNB-19 CNS = tested on: SNB-19 CNS
SK-MEL-5 melanoma = tested on: SK-MEL-5 melanoma

Row | Structure (SMILES) | TGI (HCT-116 colon) [µM] | TGI (HCT-15 colon) [µM] | TGI (LOX IMVI melanoma) [µM] | TGI (M14 melanoma) [µM] | TGI (MALME-3M melanoma) [µM] | TGI (RXF 393 renal) [µM] | TGI (SF-268 CNS) [µM] | TGI (SK-OV-3 ovarian) [µM] | TGI (SNB-19 CNS) [µM] | GI50 (HCT-116 colon) [µM] | GI50 (HCT-15 colon) [µM] | GI50 (LOX IMVI melanoma) [µM] | GI50 (M14 melanoma) [µM] | GI50 (MALME-3M melanoma) [µM] | GI50 (RXF 393 renal) [µM] | GI50 (SF-268 CNS) [µM] | GI50 (SK-MEL-5 melanoma) [µM] | TGI (SK-MEL-5 melanoma) [µM] | GI50 (SK-OV-3 ovarian) [µM] | GI50 (SNB-19 CNS) [µM]
1 | CC(=O)c1sc(-c2nc(C)c(C(=O)/C=C\c3ccc(/C=C\C(=O)c4sc(-c5nc(C)c(C(C)=O)s5)nc4C)cc3)s2)nc1C | > 100 | > 100 | > 100 | > 100 | > 100 | > 100 | > 100 | > 100 | > 100 | – | – | – | – | – | – | – | – | – | – | –
2 | O=[N+]([O-])c1ccc2c(c1)C(c1ccccc1Cl)=Nc1cn[nH]c1N2 | > 25 | > 25 | > 25 | > 25 | > 25 | > 25 | > 25 | > 25 | > 25 | 11.2 | 15.3 | 18.1 | > 25 | > 25 | 4.57 | > 23.9 | 11.3 | > 25 | 12.5 | > 25
3 | CC(C)S(=O)(=O)c1ccccc1Nc1nc(Nc2cccc(NC(=O)CN)c2)ncc1Cl | 0.696 | 3.72 | 0.258 | 1.49 | 3.12 | 0.302 | 1.3 | 8.57 | 10.1 | 0.0403 | 0.16 | 0.0384 | 0.189 | 1.22 | 0.0565 | 0.189 | 0.136 | 0.894 | 1.11 | 0.251
4 | CCCCC1(CN2CCOCC2)S/C(=N/c2nc(CC(=O)OCC)cs2)NC1=O (centres undefined) | 63.1 | > 100 | 42.5 | 67.3 | > 100 | 86.1 | > 100 | > 100 | > 100 | 22 | 40 | 20.3 | 22.8 | 25.4 | 27.6 | 37.6 | 24.2 | 75.2 | 25.9 | 38.4
5 | CCc1ccccc1NC(=O)c1sc2nc3c(cc2c1N)C(=O)CCC3 | > 100 | > 100 | > 100 | > 100 | > 100 | 0.852 | > 100 | 75.7 | > 100 | 0.512 | 0.406 | 0.669 | 0.404 | 26.2 | 0.191 | 11.9 | 0.329 | > 100 | 0.537 | 0.801
6 | N#CC(=NCCO)C1=C(O)c2ccccc2C1=O | > 100 | > 100 | > 100 | > 100 | > 100 | > 100 | > 100 | > 100 | > 100 | – | – | – | – | – | – | – | – | > 100 | – | –
7 | C=CCSS/C=C/CS(=O)CC=C (centres undefined) | 27.3 | > 100 | 29.9 | 44.1 | > 100 | 55.6 | 60.7 | > 100 | > 100 | – | – | – | – | – | – | – | – | > 100 | – | –
8 | COc1ccc(OC)c2c(/C=C/c3ccc(N(C)C)cc3)ccnc12 | 8.11 | > 10 | > 10 | > 10 | > 10 | > 10 | > 10 | > 10 | > 10 | – | – | – | – | – | – | – | – | > 10 | – | –
9 | COC(=O)/C(C)=C/[N+](=O)[O-] | 20.8 | 34.4 | 38.9 | 29.2 | 31.4 | 35.6 | 51.6 | 33.4 | 32.9 | – | – | – | – | – | – | – | – | 47.3 | – | –
10 | Cc1cn2c(/C=C3\C(=O)N(C)c4ccc(O)cc43)c(C)nc2s1 | > 100 | > 100 | > 100 | 25.1 | > 100 | > 100 | > 100 | 43.2 | 39.1 | 4.04 | 4.16 | 7.51 | 3.43 | 8.58 | 36 | 9.08 | 3.45 | 57.6 | 7.52 | 3.64
11 | COc1cc2c3c(n(CCCN(C)C)c(=O)c2cc1OC)-c1ccccc1C3=O | 16.6 | > 53.3 | 19.2 | > 88.2 | > 100 | 24.7 | > 100 | > 100 | > 71.3 | 3.71 | 17.8 | 4.66 | 3.83 | 7.38 | 6.68 | 7.69 | 10.1 | 47 | 29.4 | 8.28
12 | C1C[OH+]CCNCC[OH+]CC[OH+]CCN1.[Cl-].[Pt+4] | > 100 | > 100 | > 100 | > 100 | > 100 | > 100 | > 100 | > 100 | > 100 | > 100 | > 100 | > 100 | > 100 | > 100 | > 100 | > 100 | > 100 | > 100 | > 100 | > 100
13 | Oc1cn(-c2ccc(Cl)cc2)nc1-c1n[nH]c(=S)n1C1CCCCC1 | 39.8 | > 100 | > 100 | 38.7 | > 100 | > 100 | > 100 | > 44.5 | > 44.8 | 0.612 | 0.31 | 0.451 | 0.682 | – | > 24.6 | 13.7 | 0.25 | 12.3 | 0.451 | 0.416
14 | O=C(Nc1ccc(CO)cc1)c1coc2ccccc2c1=O | > 100 | > 100 | > 100 | > 100 | > 100 | > 100 | > 100 | > 100 | > 100 | > 100 | > 100 | > 100 | > 100 | > 100 | > 100 | > 100 | > 100 | > 100 | > 100 | > 100
15 | CCn1c(CO)nn(-c2cc(O[C@@H](C)C(F)(F)F)c(C(=O)Nc3c(F)cccc3Cl)cc2F)c1=O | > 100 | > 100 | – | > 100 | > 100 | > 100 | > 100 | > 100 | > 100 | < 0.01 | < 0.01 | < 0.01 | < 0.0144 | > 32.2 | – | 0.196 | < 0.0152 | > 39.1 | 3.05 | < 0.01
16 | C[C@]12CC[C@H](O)C[C@H]1CC[C@@H]1[C@@H]2CC[C@]2(C)[C@@H](C3=CC(=O)OC3)CC[C@]12O | 0.0663 | 0.316 | 0.533 | 1.6 | 0.523 | 0.0681 | 0.226 | 0.818 | 2.2 | – | – | – | – | – | – | – | – | 0.205 | – | –
17 | N=C(N)SCc1cccc(-c2nc3ccccc3c(=O)o2)c1 | > 100 | > 100 | > 100 | > 100 | > 100 | > 100 | > 100 | > 100 | > 100 | – | – | – | – | – | – | – | – | > 100 | – | –
18 | O=C(/C=C/c1cc(CN2CCOCC2)c(O)c2ncccc12)c1cc(CN2CCOCC2)c(O)c2ncccc12 | > 100 | > 100 | > 100 | > 64.2 | > 100 | 14.3 | > 100 | 0.357 | > 100 | 0.0245 | 0.0236 | 0.0394 | 0.0506 | 0.145 | 0.14 | 0.0469 | 0.0237 | 0.0607 | 0.0348 | 0.0482
19 | [Au+].[Au+].[Au+].[c-]1nccn1Cc1ccccc1.[c-]1nccn1Cc1ccccc1.[c-]1nccn1Cc1ccccc1 | 18.6 | 56.7 | 3.08 | 6.68 | 7.08 | 5.8 | 15.3 | 36.8 | 59 | 6.68 | 19.9 | 1.56 | 2.75 | 3.35 | 2.03 | 3.35 | 2.93 | 6.15 | 19.4 | 23.1
20 | CC(C)CNC(=O)O | > 100 | > 100 | > 100 | > 100 | > 100 | > 100 | > 100 | > 100 | > 100 | – | – | – | – | – | – | – | – | > 100 | – | –
21 | C=C1C(=O)O[C@H]2[C@H]1CC/C(COC(=O)c1ccc(Cl)nc1)=C\CC[C@@]1(C)O[C@@H]21 | 2.84 | 3.39 | 3.33 | 4.02 | 4.19 | 2.31 | 9.49 | 28.5 | 20.1 | 1.45 | 1.36 | 1.58 | 1.71 | 2.12 | 1.04 | 2.62 | 3.23 | 11.1 | 14.8 | 7.55
22 | CCC(C)(C)c1ccc(OCCCCCCN2CCNCC2)cc1 | 3.12 | 3.39 | 3.21 | 4.17 | 3.6 | 2.92 | 14 | 25.7 | – | 1.7 | 1.66 | 1.76 | 1.92 | 1.94 | 1.47 | 3.78 | 1.76 | 3.24 | 11.3 | –
